# From the supplement of paper PMC11061612
# Key:
# [1] = tested on: TK10 (Kidney Carcinoma); assay: Bliss excess, mean over the matrix (fraction); higher = more synergy
# In short: (§1)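 After 24 hours at 37°C and 5% CO2 in 1536-well plates, cells in DMEM/F12 or RPMI plus 10% FBS received two-drug dose matrices for 72 hours. Viability came from CellTiter-Glo 2.0 luminescence and was scaled as inhibition, anchored at 0 by vehicle wells and at 1 by blank wells. Combination Emax is taken as the second-highest inhibition in the matrix, and Bliss excess as the observed combination effect less EA + EB − EA·EB, with EA and EB the single-agent effects.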
# [2] = tested on: KARPAS-299 (T-Cell Non-Hodgkin's Lymphoma); assay: as above
# In short: as §1
# [3] = tested on: NB69 (Neuroblastoma); assay: as above
# In short: as §1
# [4] = tested on: RF-48 (B-Cell Non-Hodgkin's Lymphoma); assay: as above
# In short: as §1
# [5] = tested on: BT-549 (Breast Carcinoma); assay: as above
# In short: as §1
# [6] = tested on: Hs-766T (Pancreatic Carcinoma); assay: combination Emax (second highest fraction inhibited in the dose matrix, 72 h); higher = more inhibition; extreme values may be limits of the assay
# In short: as §1
# [7] = tested on: TK10 (Kidney Carcinoma); assay: as above
# In short: as §1
# [8] = tested on: AMO-1 (Plasma Cell Myeloma); assay: as above
# In short: as §1
# [9] = tested on: KARPAS-299 (T-Cell Non-Hodgkin's Lymphoma); assay: as above
# In short: as §1
# [10] = tested on: RF-48 (B-Cell Non-Hodgkin's Lymphoma); assay: as above
# In short: as §1
# [11] = tested on: MIA-PaCa-2 (Pancreatic Carcinoma); assay: as above
# In short: as §1
# [12] = tested on: SW13 (Other Solid Carcinomas); assay: as above
# In short: as §1
# [13] = tested on: D-263MG (Glioblastoma); assay: as above
# In short: as §1
# [14] = tested on: EW-24 (Ewing's Sarcoma); assay: as above
# In short: as §1
# [15] = tested on: KYSE-450 (Esophageal Squamous Cell Carcinoma); assay: as above
# In short: as §1
# [16] = tested on: NCI-H358 (Lung Adenocarcinoma); assay: as above
# In short: as §1
# [17] = tested on: EFM-19 (Breast Carcinoma); assay: as above
# In short: as §1
# [18] = tested on: BT-549 (Breast Carcinoma); assay: as above
# In short: as §1
# [19] = tested on: LU-65 (Non-Small Cell Lung Carcinoma); assay: as above
# In short: as §1
# [20] = tested on: MLMA (Other Blood Carcinomas); assay: as above
# In short: as §1
# 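Wherever Bliss excess, mean over the matrix is given: after 72 h of two-drug dosing.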
Structure (SMILES),Bliss excess [1],Bliss excess [2],Bliss excess [3],Bliss excess [4],Bliss excess [5],combination Emax [6],combination Emax [7],combination Emax [8],combination Emax [9],combination Emax [10],combination Emax [11],combination Emax [12],combination Emax [13],combination Emax [14],combination Emax [15],combination Emax [16],combination Emax [17],combination Emax [18],combination Emax [19],combination Emax [20]
"Cc1cc2ncnn2cc1Nc1ncc2c(n1)n(C1CCOCC1)c(=O)n2C [AZD7648] + COc1cc([C@@H]2c3cc4c(cc3[C@@H](O[C@@H]3O[C@@H]5CO[C@@H](C)O[C@H]5[C@H](O)[C@H]3O)[C@H]3COC(=O)[C@H]23)OCO4)cc(OC)c1O [Etoposide] (first compound max 10 µM, 7x7, partner max 10 µM)",0.0187,0.0522,-0.0239,0.0671,0.0306,0.253,0.592,0.942,0.976,0.755,0.945,0.86,0.618,0.714,0.459,0.628,0.615,0.736,0.897,0.816
"Cc1cc2ncnn2cc1Nc1ncc2c(n1)n(C1CCOCC1)c(=O)n2C [AZD7648] + C[C@@H]1COCCN1C2=NC(=NC(=C2)C3(CC3)[S@](=N)(=O)C)C4=C5C=CNC5=NC=C4 [AZD6738] (first compound max 10 µM, 7x7, partner max 10 µM)",0.0062,-0.0183,0.0172,0.0071,0.0207,0.636,0.753,0.862,0.927,0.528,0.592,0.499,0.647,0.61,0.593,0.606,0.541,0.441,0.656,0.67
"Cc1cc2ncnn2cc1Nc1ncc2c(n1)n(C1CCOCC1)c(=O)n2C [AZD7648] + O=C(c1cc(Cc2n[nH]c(=O)c3ccccc23)ccc1F)N1CCN(C(=O)C2CC2)CC1 [Olaparib] (first compound max 10 µM, 7x7, partner max 10 µM)",-0.0843,-0.0098,-0.0397,0.0158,-0.0487,0.353,0.234,0.196,0.151,0.322,0.22,0.203,0.094,0.214,0.0972,0.279,0.401,0.18,0.312,0.279
"Cc1nc(Nc2ncc(C(=O)Nc3c(C)cccc3Cl)s2)cc(N2CCN(CCO)CC2)n1 [Dasatinib] + CC(=O)Nc1cccc(-n2c(=O)n(C3CC3)c(=O)c3c(Nc4ccc(I)cc4F)n(C)c(=O)c(C)c32)c1 [Trametinib] (first compound max 2 µM, 7x7, partner max 1 µM)",0.0159,0.0122,0.0099,-0.0369,-0.0945,0.777,0.766,0.405,0.427,0.414,0.894,0.716,0.761,0.171,0.382,0.69,0.199,0.436,0.564,0.675
"COc1cc2ncnc(Nc3ccc(F)c(Cl)c3)c2cc1OCCCN1CCOCC1 [Gefitinib] + CC(C)n1c(=O)n(C)c2cnc3cc(F)c(-c4ccc(OCCCN5CCCCC5)nc4)cc3c21 [AZD1390] (first compound max 10 µM, 7x7, partner max 0.3 µM)",-0.0646,-0.0218,-0.0615,-0.0283,-0.0549,0.181,0.445,0.323,0.14,0.244,0.208,0.724,0.132,0.189,0.338,0.536,0.158,0.0893,0.268,0.33
"COc1cc2c(cc1OCCCCCOc1cc3c(cc1OC)C(=O)N1C=C(C)C[C@H]1C=N3)N=C[C@@H]1CC(C)=CN1C2=O [SG3199] + O=C(c1cc(Cc2n[nH]c(=O)c3ccccc23)ccc1F)N1CCN(C(=O)C2CC2)CC1 [Olaparib] (first compound max 0.001 µM, 7x7, partner max 10 µM)",-0.0646,-0.0122,-0.0102,0.0133,-0.041,0.0914,0.0517,0.0932,0.0832,0.266,0.168,0.0899,0.0915,0.196,0.0761,0.0868,0.171,0.095,0.24,0.164
"N#Cc1cnc(Nc2cc(NC[C@H]3CNCCO3)c(C(F)(F)F)cn2)cn1 [SRA737] + C=CCn1c(=O)c2cnc(Nc3ccc(N4CCN(C)CC4)cc3)nc2n1-c1cccc(C(C)(C)O)n1 [AZD1775] (first compound max 10 µM, partner max 1 µM)",0.0566,0.0776,0.163,-0.0171,0.0819,0.512,0.653,0.967,0.966,0.467,0.911,0.218,0.575,0.639,0.906,0.763,0.413,0.804,0.887,0.826
"N#Cc1cnc(Nc2cc(NC[C@H]3CNCCO3)c(C(F)(F)F)cn2)cn1 [SRA737] + CCc1c2c(nc3ccc(O)cc13)-c1cc3c(c(=O)n1C2)COC(=O)[C@]3(O)CC [SN-38] (first compound max 10 µM, 7x7, partner max 0.3 µM)",0.0241,0.0148,-0.0351,-0.0047,-0.0463,0.631,0.682,0.967,0.999,0.769,0.942,0.948,0.823,0.768,0.94,0.8,0.689,0.75,0.906,0.77
"N#Cc1cnc(Nc2cc(NC[C@H]3CNCCO3)c(C(F)(F)F)cn2)cn1 [SRA737] + Nc1ccn([C@@H]2O[C@H](CO)[C@@H](O)C2(F)F)c(=O)n1 [Gemcitabine] (first compound max 10 µM, 7x7, partner max 0.3 µM)",-0.0589,0.0707,0.0366,0.0451,-0.0532,0.477,0.549,0.974,0.998,0.746,0.951,0.944,0.734,0.691,0.83,0.665,0.684,0.715,0.862,0.818
"N#Cc1cnc(Nc2cc(NC[C@H]3CNCCO3)c(C(F)(F)F)cn2)cn1 [SRA737] + O=c1[nH]cc(F)c(=O)[nH]1 [5-Fluorouracil] (first compound max 10 µM, 7x7, partner max 20 µM)",-0.0549,0.0529,-0.0068,-0.0095,0.0358,0.405,0.551,0.882,0.996,0.566,0.252,0.0967,0.35,0.585,0.379,0.631,0.355,0.711,0.778,0.77
"C[C@@H](c1ccc2nccn2c1)n1nnc2ncc(-c3cnn(C)c3)nc21 [Savolitinib] + CC1(C)CCC(CN2CCN(c3ccc(C(=O)NS(=O)(=O)c4ccc(NCC5CCOCC5)c([N+](=O)[O-])c4)c(Oc4cnc5[nH]ccc5c4)c3)CC2)=C(c2ccc(Cl)cc2)C1 [Venetoclax] (first compound max 1 µM, 7x7, partner max 1 µM)",-0.0568,-0.0121,-0.0378,-0.0502,-0.0439,0.252,0.106,0.326,0.169,0.384,0.164,0.139,0.158,0.172,0.0763,0.128,0.182,0.113,0.129,0.157
"C[C@@H](c1ccc2nccn2c1)n1nnc2ncc(-c3cnn(C)c3)nc21 [Savolitinib] + Cc1c2c(nn1C)CSCc1cc(n(C)n1)CSc1cc(c3ccccc3c1)OCCCc1c(C(=O)O)n(C)c3c-2c(Cl)ccc13 [AZD5991] (first compound max 1 µM, 7x7, partner max 1 µM)",-0.0486,0.081,-0.0122,-0.029,-0.0229,0.233,0.116,1,0.936,0.275,0.204,0.735,0.366,0.196,0.115,0.108,0.223,0.225,0.179,0.33
